Test results taken from Sander's compilation of Henry's law constants (doi:10.14233/ajchem.2013.13584).
Values joined by “and” are separate entries in the source; they are usually repeats but may differ in a detail not shown here. Equal entries are not always repeated.

Test: Henry solubility constant Hcp at 298.15 K (mol/(m3 Pa))
Conditions: reference: Zhang et al. (2013)

Structure (SMILES) | Henry solubility constant Hcp
Cc1ccccc1C [1,2-dimethylbenzene] | 0.0027 and 0.0022
c1ccccc1 [benzene] | 0.0027 and 0.0035
CCc1ccccc1 [ethylbenzene] | 0.0019 and 0.0014
Cc1ccccc1 [methylbenzene] | 0.0028
O=[N+]([O-])c1ccccc1 [nitrobenzene] | 0.14
ClC=C(Cl)Cl [trichloroethene] | 0.0016 and 0.0013
